The values below come from US8354405B2, “6-cycloamino-3-(pyrid-4-yl)imidazo[1,2-b]pyridazine derivatives, preparation thereof and therapeutic use thereof” (Sanofi, priority 2007, dated 2013).

For one data set, the target named is T1, human CK1 delta (Homo sapiens, UniProt P48730).
T1 construct: purchased Invitrogen Corporation PV3665
Briefly: FRET fluorescence test, Z'Lyte kinase assay kit, CK1 delta. The conditions noted are these: peptide SER/THR 11 2 μM, ATP 4 times KM. It is filed as biochemical. The text has this: The capacity of the compounds of the invention to inhibit the phosphorylation of casein by the casein kinases 1 epsilon and delta may be evaluated using an FRET (Fluorescence Resonance Energy Transfer) fluorescence test with the aid of the “Z′Lyte™ kinase assay kit” (reference PV3670; Invitrogen Corporation™) according to the manufacturer's instructions.
The casein kinases 1 used are obtained from Invitrogen Corporation (human CK1 epsilon PV3500 and human CK1 delta PV3665).
A peptide substrate, labeled at both ends with a fluorophore-donating group (coumarin) and a fluorophore-accepting group (fluorescein) constituting an FRET system is […] in the presence of ATP by casein kinase 1 epsilon or delta in the presence of increasing concentrations of compounds of the invention.
The mixture is treated with a site-specific protease that specifically cleaves the substrate peptide to form two fluorescent fragments having a large fluorescence emission ratio.
The fluorescence observed is thus related to the capacity of the products of the invention to inhibit the phosphorylation of the substrate peptide by casein kinase 1 epsilon or casein kinase 1 delta.
The compounds of the invention are dissolved at different concentrations starting with a 10 mM stock solution in DMSO diluted in a buffer containing 50 mM HEPS, pH 7.5, 1 mM EGTA, 0.01% Brij-35, 10 mM MgCl2 for casein kinase 1 epsilon and supplemented with Trizma Base (50 mM), pH 8.0 and NaN3 (0.01% final) for casein kinase 1 delta.
The phosphorylation of the substrate peptide SER/THR 11 obtained from Invitrogen Corporation™ is performed at a final concentration of 2 μM. The ATP concentration is 4 times the KM, this value being 2 μM for casein kinase 1 epsilon and 4 μM for casein kinase 1 delta.
The emitted fluorescence is measured at wavelengths of 445 and 520 nm (excitation at 400 nm).

Data set [1] has as its system Mper1-luc Rat-1 (P2C4) fibroblasts. Briefly: Circadian cell assay (mPer1-luciferase reporter, period prolongation). It counts as cell-based. Conditions: effective concentration that induces a 1-hour prolongation of the circadian period. How it is done: Experimental Protocols for Circadian Cell Assay
Mper1-luc Rat-1 (P2C4) fibroblast cultures were prepared by dividing the cultures every 3-4 days (about 10-20% of confluence) on 150 cm^2 degassed polystyrene tissue culture flasks (Falcon® #35-5001) and maintained in growth medium [EMEM (Cellgro #10-010-CV); 10% fetal bovine serum (FBS; Gibco #16000-044); and 50 I.U./mL of penicillin-streptomycin (Cellgro #30-001-CI)] at 37° C. and under 5% CO2.
Cells obtained from Rat-1 fibroblast cultures at 30-50% of confluence as described above were co-transfected with vectors containing the selection marker for resistance to zeocin for a stable transfection and a luciferase reporter gene directed by the promoter mPer-1. After 24 to 48 hours, the cultures were divided on 96-well plates and maintained in growth medium supplemented with 50-100 μg/mL of zeocin (Invitrogen® #45-0430) for 10-14 days. The zeocin-resistant stable transfectants were evaluated for expression of the reporter by adding to the growth medium luciferin 100 μM (Promega® #E1603®) and by assaying the luciferase activity on a TopCount® scintillation counter (Packard model #C384V00). The Rat-1 cell clones expressing both zeocin resistance and luciferase activity directed by mPer1 were serum-shock synchronized with 50% horse serum [HS (Gibco® #16050-122)] and the activity of the circadian reporter was evaluated. The P2C4 clone of fibroblasts Mper1-luc Rat-1 was selected to test the compound.
The Mper1-luc Rat-1 (P2C4) fibroblasts at 40-50% of confluence obtained according to the protocol described above were plated out onto 96-well opaque tissue culture plates (Perkin Elmer® #6005680). The cultures are maintained in growth medium supplemented with 100 μg/mL of zeocin (Invitrogen #45-0430) until they reached 100% of confluence (48-72 hours). The cultures were then synchronized with 100 μL of synchronization medium [EMEM (Cellgro #10-010-CV); 100 I.U./mL of penicillin-streptomycin (Cellgro #30-001-C1); 50% HS (Gibco #16050-122)] for 2 hours at 37° C. and under 5% CO2. After synchronization, the cultures were rinsed with 100 μL of EMEM (Cellgro #10-010-CV) for 10 minutes at room temperature. After rinsing, the medium is replaced with 300 μL of CO2-independent medium [CO2I (Gibco #18045-088); L-glutamine 2 mM (Cellgro #25-005-C1); 100 U.I./mL of penicillin-streptomycin (Cellgro #30-001-C1); luciferin 100 μM (Promega #E 1603)]. […]
The two methods produced a virtually identical period estimation on a range of circadian periods. […] The data were analyzed by adjusting a hyperbolic curve to the data expressed as change of period (y-axis) as a function of the concentration of the test compound (x-axis) in the XLfit™ software and the CE Delta (t+1 h) was interpolated from this curve.

Data set [2] addresses casein kinase 1 epsilon (CK1 epsilon) (Homo sapiens, UniProt P49674). Briefly: Filter-plate assay of ATP-33P for CK1 epsilon inhibitors (casein phosphorylation). It counts as biochemical. The conditions noted are these: inhibition of phosphorylation of casein, ATP-33P filter-plate, ATP 10 μM. The protocol:
The capacity of the compounds of the invention to inhibit the phosphorylation of casein by casein kinases 1 epsilon and delta may be evaluated according to the procedure described in document US 2005/0 131 012.
Filter-Plate Assay of ATP-^33P for the Screening of CK1 Epsilon Inhibitors:
The effect of the compounds on inhibition of the phosphorylation of casein by the enzyme casein kinase 1 epsilon (CK1 epsilon) is measured, using a casein assay via filtration of ATP-^33P in vitro.
Casein kinase 1 epsilon (0.58 mg/ml) is obtained via fermentation and purification processes performed according to methods that are well known to those skilled in the art, or may also be obtained from Invitrogen Corporation™ (human CK1 epsilon).
The compounds are tested at five different concentrations so as to generate IC50 values, i.e. the concentration at which a compound is capable of inhibiting the enzymatic activity by 50%, or alternatively the percentage of inhibition at a concentration of 10 micromolar.
“U”-bottomed Falcon plates are prepared by placing 5 μL of solutions of the compounds according to the invention at concentrations of 10, 1, 0.1, 0.01 or 0.001 μM in different wells. The solutions of the compounds according to the invention at these various concentrations are prepared by diluting in a test buffer (Tris 50 mM pH 7.5, MgCl2 […], DTT 2 mM and EGTA 1 mM) a stock solution in DMSO at a concentration of 10 mM. Next, 5 μL of dephosphorylated casein are added to a final concentration of 0.2 μg/μL, 20 μL of CK1 epsilon to a final concentration of 3 ng/μL, and 20 μL of ATP-^33P to a final concentration of 0.02 μCi/μL mixed with cold ATP (10 μM final—approximately 2×10^6 CPM per well). The final total test volume per well is equal to 50 μL.
The “U”-bottomed Falcon® test plate mentioned above is vortexed, and then incubated at room temperature for 2 hours. After 2 hours the reaction is stopped by adding an ice-cold solution of 65 μL of cold ATP (2 mM) prepared in test buffer.
100 μL of the reaction mixture are then transferred from the “U”-bottomed Falcon® plate into Millipore® MAPH filter plates, preimpregnated with 25 μL of ice-cold 100% TCA.
The Millipore MAPH filter plates are agitated gently and are left to stand at room temperature for at least 30 minutes to precipitate the proteins.
After 30 minutes, the filter plates are sequentially washed and filtered with 2×150 μL of 20% TCA, 2×150 μL of 10% TCA and 2×150 μL of 5% TCA (6 washes in total per plate/900 μL per well).
The plates are left to dry overnight at room temperature. Next, 40 μL of Microscint-20 Packard® scintillation liquid are added per well and the plates are closed in a leak tight manner. The radiation emitted by each well is then measured for 2 minutes in a TopCount NXT Packard® scintillation counter, in which the values of CPM/well are measured.
The percentage inhibition of the capacity of the enzyme to phosphorylate the substrate (casein) is determined for each concentration of test compound. These inhibition data expressed as percentages are used to calculate the IC50 value for each compound compared with the controls.
The kinetic studies determined the KM value for ATP as being 21 μM in this test system.

casein kinase 1 epsilon (CK1 epsilon), sequence (P49674 whole entry): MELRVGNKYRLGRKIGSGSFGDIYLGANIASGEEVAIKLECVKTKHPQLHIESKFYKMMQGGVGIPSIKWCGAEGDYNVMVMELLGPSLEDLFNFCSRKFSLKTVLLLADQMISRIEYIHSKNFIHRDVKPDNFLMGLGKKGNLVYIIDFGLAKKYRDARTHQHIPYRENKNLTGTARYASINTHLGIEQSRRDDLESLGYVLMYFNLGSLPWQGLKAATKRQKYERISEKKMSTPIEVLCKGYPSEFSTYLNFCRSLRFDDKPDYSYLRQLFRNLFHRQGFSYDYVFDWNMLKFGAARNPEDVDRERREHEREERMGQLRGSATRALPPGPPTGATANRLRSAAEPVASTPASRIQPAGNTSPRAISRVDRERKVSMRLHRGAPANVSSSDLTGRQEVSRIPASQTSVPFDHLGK
T1 sequence (P48730 whole entry): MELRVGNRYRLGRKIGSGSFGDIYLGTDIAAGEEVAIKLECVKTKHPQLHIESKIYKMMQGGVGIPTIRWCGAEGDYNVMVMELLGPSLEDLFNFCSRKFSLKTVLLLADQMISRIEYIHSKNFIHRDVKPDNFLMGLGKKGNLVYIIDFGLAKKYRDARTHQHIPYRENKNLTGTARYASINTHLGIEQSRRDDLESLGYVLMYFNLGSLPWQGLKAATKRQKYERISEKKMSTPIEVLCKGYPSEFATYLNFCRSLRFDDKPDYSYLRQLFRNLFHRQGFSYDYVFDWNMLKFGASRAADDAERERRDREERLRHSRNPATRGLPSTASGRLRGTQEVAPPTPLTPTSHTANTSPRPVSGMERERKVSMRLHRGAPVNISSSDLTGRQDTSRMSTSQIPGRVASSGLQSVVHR

`CC(C)N1CCN(c2ccc3nc(-c4ccc(Cl)cc4)c(-c4ccnc(N)c4)n3n2)CC1` [Compound 81, 4-[2-(4-Chlorophenyl)-6-(4-isopropylpiperazin-1-yl)imidazo[1,2-b]pyridazin-3-yl]pyrid-2-ylamine] returned a melting point of 236 to 239 °C. Moreover, the IC50 at human CK1 delta fell in the range of 0.059 to 0.11 µM.
In turn, `CN(C)C1CCN(c2ccc3nc(-c4ccc(F)cc4)c(-c4ccncc4)n3n2)CC1` [Compound 146, {1-[2-(4-Fluorophenyl)-3-pyrid-4-ylimidazo[1,2-b]pyridazin-6-yl]piperid-4-yl}dimethylamine] displayed a melting point of 193 to 195 °C. Further, in data set [1], the “CE Delta (t + 1 h)” value is 39 nM.
In data set [2], `Cc1c(N2CCNCC2)nn2c(-c3ccncc3)c(-c3ccc(F)cc3)nc2c1C` [Compound 3, 2-(4-Fluorophenyl)-7,8-dimethyl-6-piperazin-1-yl-3-pyrid-4-ylimidazo[1,2-b]pyridazine] came in with an IC50 of 0.001 µM. This counts as single-digit nanomolar.
Molecule `Fc1ccc(-c2nc3ccc(N4CC5CN(C6CC6)CC5C4)nn3c2-c2ccncc2)cc1` (stereo not shown) [Compound 115, 6-(5-Cyclopropylhexahydropyrrolo[3,4-c]pyrrol-2(1H)-yl)-2-(4-fluorophenyl)-3-pyrid-4-ylimidazo[1,2-b]pyridazine] returned a melting point of 204 to 206 °C. For the same molecule, the “CE Delta (t + 1 h)” value in data set [1] is on record as 2 nM.
As to `c1ccc(-c2nc3ccc(N4CCNCC4)nn3c2-c2ccncc2)cc1` [Compound 1, 2-Phenyl-6-piperazin-1-yl-3-pyrid-4-ylimidazo[1,2-b]pyridazine], in data set [2], the IC50 amounted to 0.003 µM.
For `CN1CCN(c2ccc3nc(-c4ccc(F)cc4)c(-c4ccncc4)n3n2)CC1` [Compound 50, 2-(4-Fluorophenyl)-6-(4-methylpiperazin-1-yl)-3-pyrid-4-ylimidazo[1,2-b]pyridazine], the “CE Delta (t + 1 h)” value in data set [1] was determined as 28 nM. On human CK1 delta, the IC50 came out at 0.005 µM.
In the case of `CC1(C)CN(c2ccc3nc(-c4cc(F)cc(F)c4)c(-c4ccncc4)n3n2)CCN1` [Compound 31, 2-(3,5-Difluorophenyl)-6-(3,3-dimethylpiperazin-1-yl)-3-pyrid-4-ylimidazo[1,2-b]pyridazine], the IC50 against human CK1 delta was in the range of 0.091 to 0.093 µM.
`c1ccc(-c2nc3ccc(N4CCC(N5CCCC5)CC4)nn3c2-c2ccncc2)cc1` [Compound 147, 2-Phenyl-3-pyrid-4-yl-6-(4-pyrrolidin-1-ylpiperid-1-yl)-imidazo[1,2-b]pyridazine]: the results for the IC50 (in data set [2]; at human CK1 delta) were 0.022 to 0.116 µM and 0.05 to 0.053 µM, respectively.
In the case of `Cc1cc(C)cc(-c2nc3ccc(N4CCNC(C)(C)C4)nn3c2-c2ccnc(N)c2)c1` [Compound 30, 4-[2-(3,5-Dimethylphenyl)-6-(3,3-dimethylpiperazin-1-yl)imidazo[1,2-b]pyridazin-3-yl]pyrid-2-ylamine], in data set [2], the half-inhibitory concentration (IC50) worked out at 0.06 µM.
In the case of “{4-[2-(4-Fluorophenyl)-6-((R)-3-methylpiperazin-1-yl)imidazo[1,2-b]pyridazin-3-yl]pyrid-2-yl}methylamine [Compound 153]”, in data set [1], the “CE Delta (t + 1 h)” value is 2 to 9 nM. This molecule also returned an IC50 in data set [2] of 0.008 µM.

As a reminder, the melting point is the temperature, or range, at which the solid turns liquid. Usually IC50 stands for the point on the concentration scale where inhibition reaches its midpoint.
